Experimental findings from patent US20250066303A1, “ARYL TETRAHYDROPYRIDINE DERIVATIVE OR SALT THEREOF, PEST CONTROL AGENT CONTAINING SAME, AND METHOD FOR USE THEREOF” (NIHON NOHYAKU CO., LTD., priority 2021, published 2025) are described below.

In general, inhibition refers to how much of the control response was suppressed.

The test system of the assay is Dirofilaria immitis. The experiment in a line: Influence evaluation test on the growth of Dirofilaria immitis. To be noted: 168 h, read-out: development inhibition rate from the L3 stage larva to the L4-stage larva.

As for `CN1CC(C)(c2ccc(C(F)(F)F)cc2)C(O)=C(C(=S)Nc2ccc(F)cc2)C1=O` (stereo not shown) [compound No. 3-14, N-(4-fluorophenyl)-4-hydroxy-1,5-dimethyl-2-oxo-5-(4-(trifluoromethyl)phenyl)-1,2,5,6-tetrahydropyridine-3-carbothioamide], the inhibition at 10 µM was ≥ 50%.
